Data taken from patent US20080081781A1, “Methods and compositions for the treatment of metabolic syndrome” (priority 2004, published 2008).

How the values were obtained:
[1] = test system: rat model subjects; assay: Combinatorial anti-hyperlipidemia efficacy of berberine and lovastatin in rats (Table 9); assay type: in vivo
[2] = test system: rats; assay: Long term toxicity in rats; assay type: in vivo, rat; details: 300 mg/kg orally for 182 days
Protocol: For long term toxicity determination, rats were administered 300 mg/kg of berberine orally for 182 days.

[3] = test system: InsR mRNA; assay: InsR mRNA stability after actinomycin D in HepG2 cells (slot blot); assay type: cell-based, human; details: HepG2, […] 8 h then actinomycin D; untreated cells 4.4 hr
Protocol: HepG2 cells were treated or untreated with 7.5 μg/ml of berberine for 8 h. Then, 5 μg/ml of actinomycin D was added to block the transcription. Total cellular RNA was harvested at 0, 2, 4, 6, or 8 hours after actinomycin D treatment, and slot-blotted to nitrocellulose membranes as described above. The membranes were respectively hybridized with InsR and ACTB specific probes as described above, and bands were quantitated through densitometry. The InsR mRNA levels were normalized to ACTB, and their remaining percentages are plotted against time and the decaying rate or half-life of InsR mRNA was calculated (FIG. 21B).

[4] = clinical; details: human, in vivo, po, 300 mg
Protocol: Healthy human volunteers were given 300 mg of berberine orally. […] The blood concentration curve was analyzed by 3P87 Pharmacokinetics Software program (Chinese Pharmacological Association, China).

[5] = test system: InsR gene promoter; assay: InsR promoter activity, pGL3-1.5kIRP transfected HepG2 cells; assay type: cell-based, human; details: pGL3-1.5kIRP transfected HepG2, 10 μg/ml, 8 h
Protocol: The InsR promoter luciferase gene fusion plasmid (pGL3-1.5kIRP) was kindly provided by Dr. Araki E of the Graduate School of Medical Sciences, Kumamoto University, Honjo, Kumamoto, Japan.
After overnight incubation, the cells were treated with DMSO as the solvent control or with 0, 1, 2.5, 5, 7.5 and 10 μg/ml berberine for 8 h. Cell lysates were prepared and luciferase activities were measured using the Luciferase Reporter Gene Assay (Roche Applied Science). The experiment was repeated 4 times.

[6] = test system: PKC; assay: Cellular PKC activity in HepG2 cells (PepTag assay); assay type: cell-based, human
Protocol: To determine whether berberine directly activates PKC, pGL3-1.5kIRP transfected HepG2 cells were either not treated, treated with 0.2 μM of calphostin C, 5 μg/ml of berberine or 0.5 μM of PKC activator phorbol-12-myristate-13-acetate (PMA) (Gandino, Oncogene, 5(%), 721-725 (1990) or combinations thereof for eight hours. The activity of total PKC in the control and berberine treated cells was assessed by PKC activity assay.
Cellular PKC activity was analyzed using the PepTag® Assay for Non-Radioactive Detection of Protein Kinase-C or cAMP-Dependent Protein Kinase kit (Promega) according to the protocol. Briefly, after homogenization and partial purification, 10 μl of sample protein was mixed with 5 μl of PepTag® Cl peptide (specific substrate of PKC), 5 μl of reaction buffer and 5 μl of PKC activator solution in a 25 μl reaction system. The reactions were performed at 30° C. for 30 minutes. Then, the samples were loaded onto a 0.8% agarose gel. […] They were transferred to a 96-well plate and quantified using densitometry according to the supplier's protocol. The catalytic activity of total PKC of a specific sample was expressed as pmol/min/mg, representing the number of picomoles of phosphate transferred to the substrate per minute per milligram of proteins of the sample.

[7] = test system: LDLR mRNA 3'UTR; assay: Luc-LDLR 3'UTR chimeric transcripts in transfected HepG2 cells; assay type: cell-based, human; details: transfected HepG2, berberine eight hours
From the text: Three consecutive fragments of LDLR 3 ′UTR were inserted into a cytomegalovirus promoter driven Luc plasmid (pLuc) at the 3′ end of the Luc coding sequence before the SV40 polyadenylation signal. The wild-type Luc reporter plasmid pLuc was constructed by insertion of the Luc cDNA into the HindIII and Xba sites of pcDNA3.1/Zeo(+). Addition of the LDLR 3/UTR was accomplished by PCR amplifying different regions of the 2.5 kb 3′UTR of LDLR mRNA using XbaI-tailed primers and pLDLR3 as the template. The wild type pLuc and the chimeric plasmids pLuc-UTR-2, UTR-3 and UTR-4 were transfected into HepG2 cells (FIG. 11). Cells seeded in culture dishes were transiently transfected with the chimeric plasmids. Twenty-four hours after transfection, cells were trypsinized and reseeded equally into two dishes for each plasmid transfection. After overnight incubation, one dish was treated with dimethylsulfoxide as the solvent control and another was treated with berberine for eight hours. […]
To create ARE deletion constructs, an Apa site at nt 3,384 was generated for deleting ARE3, and an Apa1 site at nt 3,334 for deleting ARE2 by site-directed mutagenesis using pLuc/UTR-2 as the template. […] The effects of berberine on the chimeric Luc transcripts were determined by measuring Luc mRNA using a quantitative real-time RT-PCR assay. […]

[8] = high fat diet rats treated for 15 days, berberine 80 mg/kg/day, lovastatin 10 mg/kg/day
[9] = high fat diet rats, Day 0 (untreated rats, baseline)

## COc1ccc2cc3[n+](cc2c1OC)CCc1cc2c(cc1-3)OCO2 [berberine]
[1]; [8]
  Cholesterol Day 15: 2.75 mmol/L
  LDL Day 15: 1.7 mmol/L
[1]; [9]
  Cholesterol Day 0: 3.65 mmol/L
  LDL Day 0: 2.25 mmol/L
[2]
  long term toxicity: blood tests, blood biochemistry, urine analysis, histopathology: No abnormalities were found
[3]
  turnover rate (half-life) of InsR transcript: 4.7 h
[4]
  AUC: 2800 ng·h/mL
  Cmax: 395 ng/mL
  clear rate CL: 130.5 L/h
  half-life: 2.91 h
[5]
  elevation of Luc mRNA level: 2.5 fold
[6]; after berberine treatment
  time at which elevation of PKC activity was first observed: 0.5 h
[6]; time-dependent
  PKC activity in liver cells: increased
[7]
  expressions of LucUTR-3 and Luc-UTR-4 or the wild type: without affecting
  increase of level of Luc-UTR-2 mRNA: 2.5 fold
